The values below come from ChEMBL document CHEMBL1155928, “Synthesis and structure-activity relationships of berberine analogues as a novel class of low-density-lipoprotein receptor up-regulators” (2008).

SMILES strings stand for the structures.

In the experiment the test system is HepG2. Nature of the experiment: Upregulation of LDLR mRNA expression in human HepG2 cells after 8 hrs by RT-PCR relative to control. Format: functional.
The compound `CCOc1ccc2cc3[n+](cc2c1OC)CCc1cc2c(cc1-3)OCO2.[Cl-]` came in with an Activity of 2.35.
In the case of `COc1cc2cc3[n+](cc2cc1OC)CCc1cc2c(cc1-3)OCO2.[Cl-]` [PSEUDOBERBERINE] it was 8.5.
In the case of `CCOc1cc2c[n+]3c(cc2cc1OC)-c1cc2c(cc1CC3)OCO2.[Cl-]` it was 2.17; in that of `[Cl-].c1ccc2c[n+]3c(cc2c1)-c1cc2c(cc1CC3)OCO2`, 2.95; in that of `CCCOc1ccc2cc3[n+](cc2c1)CCc1cc2c(cc1-3)OCO2.[Cl-]`, 2.13.
In the case of `CCCOc1cc2cc3[n+](cc2cc1OC)CCc1cc2c(cc1-3)OCO2.[Cl-]` it was 2.35; in that of `COc1ccc2cc3[n+](cc2c1OC)CCc1cc2c(cc1-3)OCO2.[Cl-]` [BERBERINE CHLORIDE], 5.3; in that of `CCCOc1ccc2cc3[n+](cc2c1OCCC)CCc1cc2c(cc1-3)OCO2.[Cl-]`, 2.21.
Consider `CCCOc1ccc2cc3[n+](cc2c1OC)CCc1cc2c(cc1-3)OCO2.[Cl-]`, for which the Activity came to 2.3.
In the case of `COc1cc2cc3[n+](cc2cc1O)CCc1cc2c(cc1-3)OCO2.[Cl-]` it was 1.6.
In the case of `CCCOc1cc2c[n+]3c(cc2cc1OC)-c1cc2c(cc1CC3)OCO2.[Cl-]` it was 1.94; in that of `Oc1ccc2cc3[n+](cc2c1)CCc1cc2c(cc1-3)OCO2.[Cl-]`, 5.16.
In the case of `COc1cc2c[n+]3c(cc2cc1O)-c1cc2c(cc1CC3)OCO2.[Cl-]` it was 2.2; in that of `CCOc1cc2c[n+]3c(cc2cc1O)-c1cc2c(cc1CC3)OCO2.[Cl-]`, 1.8; in that of `COc1cc2c[n+]3c(cc2c(OC)c1OC)-c1cc2c(cc1CC3)OCO2.[Cl-]`, 3.01.
As to `CCOc1ccc2cc3[n+](cc2c1OCC)CCc1cc2c(cc1-3)OCO2.[Cl-]`, the Activity was 2.13.
In the case of `COc1cc2cc3[n+](cc2c(OC)c1OC)CCc1cc2c(cc1-3)OCO2.[Cl-]` it was 3.16.
In turn, `COc1ccc2cc3[n+](cc2c1)CCc1cc2c(cc1-3)OCO2.[Cl-]` had an Activity of 2.
In the case of `CCOc1ccc2cc3[n+](cc2c1)CCc1cc2c(cc1-3)OCO2.[Cl-]` it was 2.9.
In the case of `CCOc1cc2cc3[n+](cc2cc1OC)CCc1cc2c(cc1-3)OCO2.[Cl-]` it was 2.1.
